Measured values as given in patent US6271238A, “Acetamide derivatives and protease inhibitors” (Nippon Kayaku Kabushiki Kaisha, priority 1996, dated 2001).

Assays:
[1] = target: T1, rat chymase (Rattus norvegicus, UniProt P09650); experiment: Inhibitory activity on rat chymase (synthetic substrate); type: biochemical; conditions: substrate succinyl leucyl leucyl valyl tyrosyl methylcoumarylamide; pH 8.0, 37° C., 15 min; read-out: Rat Chymase (IC50: nM), 50% inhibitory concentration
T1 construct: 50 g rat tongue was finely divided by scissors and a scalpel; from tissue; host or cells: rat tongue
T1 sequence (P09650 21-260): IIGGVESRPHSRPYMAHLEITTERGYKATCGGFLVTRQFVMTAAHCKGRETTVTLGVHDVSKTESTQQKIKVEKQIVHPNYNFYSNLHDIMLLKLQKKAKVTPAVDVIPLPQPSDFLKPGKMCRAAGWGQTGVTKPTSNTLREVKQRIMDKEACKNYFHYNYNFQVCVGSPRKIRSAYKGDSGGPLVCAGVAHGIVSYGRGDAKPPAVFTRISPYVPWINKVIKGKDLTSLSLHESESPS
Procedure: In the present invention, chymase was purified by the methods described in these literatures, and the present compounds were examined for inhibitory activity on chymase, inhibitory action on activation of mast cells and eosinophils, and pharmacological action in animals. Hereinafter, specific methods are described. […] 50 g rat tongue was finely divided by scissors and a scalpel, suspended in 0.1 M phosphate buffer (pH 8.0), and disrupted by a Polytron homogenizer for 5 minutes to prepare a crude chymase enzyme solution. […] The supernatant was applied to an octyl Sepharose 4B column (40×100 mm) previously equilibrated with 0.1 M phosphate buffer (pH 8.0) containing 2 M sodium chloride and 5% ammonium sulfate, and the protein was eluted with a linear concentration gradient of from 2 M to 0 M sodium chloride. […] (D) Measurement of inhibitory activity on chymase (a) Measurement using the synthetic substrate The synthetic chymase substrate was used for measurement of the inhibitory activity on the rat chymase as a subtrate, and the fluorescence of formed aminomethylcoumarin after reaction was measured by a spectrophotometer. […] The test was conducted several times. Chymase was prepared for each test in the manner described above. The compounds examined were compounds prepared in the above-described examples. […] Succinyl leucyl leucyl valyl tyrosyl methylcoumarylamide (for rat […] angiotensin I (for human and dog chymase)

[2] = test system: guinea pig eosinophils; experiment: Inhibitory action on eosinophils (release of active oxygen from guinea pig eosinophils); type: cell-based; conditions: Cavia porcellus, Eosinophil, 5 min, PAF, luminol chemiluminescence for 5 minutes
Procedure: Inhibitory activity on eosinophil activation
(A) Preparation of eosinophils
Polymyxin B (produced by Sigma) was administered intraperitoneally into a guinea pig (Hartley, male, 6-week-old) at a dosage of 1 mg once every week for 6 to 8 weeks. After the final administration of polymyxin B. 50 ml of PBS (phosphate-buffered saline) was injected into the intraperitoneal cavity of the guinea pig, and cells were recovered. The cells were centrifuged at 800 rpm for 5 minutes and the abdomen infiltration cells were collected as precipitates and then suspended in 1 ml of 40% Ficoll (40% Ficoll (produced by Pharmacia), HBSS (Hanks' balanced salt solution) and layered on a Ficoll discontinuous density gradient (40 to 90%). It was centrifuged at 1500 rpm for 40 minutes, and the eosinophil fraction was recovered. In this operation, eosinophils of 99% or more purity were usually obtained. Further, the cells were washed twice with RPMI 1640 medium (10% BSA (bovine serum albumin available from Boehringer Mannheim), suspended again at a predetermined density, and used in the objective experiment.
(B) Inhibitory action on eosinophils (inhibitory action on release of active oxygen from guinea pig eosinophils)
The eosinophils (99% or more purity) obtained by the Ficoll density gradient method in (A) above were suspended at a cell density of 4×10^5 in a buffer solution (0.136 M sodium chloride, 2.7 mM potassium chloride, 1.8 mM calcium chloride, 1.0 mM magnesium chloride, 11.9 mM sodium hydrogen carbonate, 5.5 mM D-glucose, 5.0 mM HEPES, 0.36 mM sodium dihydrogen phosphate, pH 7.2). Each drug (2 μl) and 180 μl of the cell suspension were put to a 96-well multi-well plate (for chemiluminescence measurement, white type) previously kept at 37° C., and incubated at 37° C. for 10 minutes. After incubation, 20 μl of PAF (platelet-activating factor) (5×10^-6 M) and 20 μl of a luminol solution were added to it and immediately examined for its chemiluminescence (Luminoskan Labosystem). The chemiluminescence for 5 minutes were measured to calculate 50% inhibitory concentration (IC50: μM).

[3] = test system: rat mast cells; experiment: Inhibitory action on degranulation of mast cells (histamine release from rat mast cells); type: cell-based; conditions: Mast cell; rat peritoneal mast cells, anti-IgE antibody, 37° C.
Procedure: Inhibitory action on degranulation of mast cells
(A) Preparation of mast cells
30 ml of mast cell buffer solution (150 mM sodium chloride, 3.7 mM potassium chloride, 3.0 mM disodium hydrogen phosphate, 3.5 mM sodium dihydrogen phosphate, 5.6 mM dextrose, pH 7.0) was injected into the abdomen of a rat(SD, male, 8 to 10 week-old), and intra peritoneal cavity cells were recovered and centrifuged at 800 rpm for 5 minutes, and then the abdomen infiltration cells were recovered as precipitates. The precipitated cells were further washed twice with the mast cell buffer solution, suspended again at a predetermined density, and used in the objective experiment.
(B) Inhibitory action on degranulation of mast cells (inhibitory action on histamine release from rat mast cells)
The mast cells obtained in the procedure in (A) above were suspended at 1×10^5 cells in the mast cell buffer solution and kept at 37° C. 2 μl of each drug and 200 μl of the cell suspension were added into a 1.5 ml test tube previously kept at 37° C. and incubated at 37° C. for 10 minutes. After incubation, 2 μl anti-IgE antibody (BETHYL Lab. Inc.) was added to it and further incubated at 37° C. for 15 minutes. After the end of the reaction, the reaction mixture was immediately cooled on ice and centrifuged at 4° C. at 4000 rpm for 5 minutes, and then the supernatant was stored. Histamine in the supernatant was modified with ortho-phthalaldehyde and measured by high performance liquid chromatography to determine 50% inhibitory concentration (IC50: μM).

IC50 [1] [nM]	IC50 [2] [µM]	IC50 [3] [µM]	SMILES
54	2.5		CN1CCN(C(=O)CCCC(=O)C(=O)C(Cc2cccc(F)c2)NC(=O)Cn2c(-c3ccccc3)ncc(N)c2=O)CC1 (stereo not shown) [Compound 69]
	2.6	13	Nc1cnc(-c2ccccc2)n(CC(=O)NC(Cc2ccccc2)C(=O)C(=O)CCCN2CCOCC2)c1=O (stereo not shown) [Compound 71, 2-(5-Amino-6-oxo-2-phenyl-1,6-dihydropyrimidine-1-yl)-N-{2,3-dioxo-6-(4-morpholine-4-yl)-1-phenylmethyl}hexylacetamide]
